The values that follow are results of earlier work, collected in patent publication US20090274776A1, “Method for the Diagnosis and Treatment of Conditions Involving Aberrant Erythrocyte Potassium Levels” (THE REGENTS OF THE UNIVERSITY OF MICHIGAN, priority 2006, published 2009).

Series [1] concerns RBC. To be noted: RBC treated with the substance; by activation of IKCa.
The subject of series [2] is endothelium-derived hyperpolarizing factor (EDHF). To be noted: in the presence of apamin.
Series [3] has as its target T1, KCa in RBC (Homo sapiens, UniProt O15554).
T1 construct: host or cells: red blood cells (endogenous channel)
Particulars: red blood cells.

Regarding `Nc1nc2c(nc(Br)n2[C@@H]2O[C@@H]3COP(=O)(O)O[C@H]3[C@H]2O)c(=O)[nH]1` [8Br-cGMP], in series [1], the “K+ efflux in RBC” value is given as “increased”.
For `OC1(c2cccc(Cl)c2)C2=NCCCN2c2ccccc21` (stereo not shown) [Ciclazindol], the EDHF relaxation entry in series [2] is listed as “abolishes”. The “effect on KCa in RBC” value in series [3] is reported as “inhibits”.
`CC1(C)Oc2ccc(C#N)cc2C(N2CCCC2=O)C1O` (stereo not shown) [cromakalim]: the “effect on KCa in RBC” value in series [3] is recorded as “opens”.
